Laboratory results as given in patent US7186710B2, “Phthalazinones” (Altana Pharma AG, priority 2001, dated 2007).

Columns and labels:
PDE7A1 = molecular target: T1, PDE7A1 (Homo sapiens, UniProt Q13946); assay: Inhibition of PDE7 activity, [3H]cAMP SPA enzyme assay with recombinant PDE7A1; format: biochemical; conditions: recombinant PDE7A1 from SF21 insect cells, 0.5 μM cAMP; for IC50: read-out: PDE7 −logIC50 (converted)
T1 construct: made in house; host or cells: SF21 insect cells (baculovirus, pCRBac)
T1 sequence (Q13946 whole entry): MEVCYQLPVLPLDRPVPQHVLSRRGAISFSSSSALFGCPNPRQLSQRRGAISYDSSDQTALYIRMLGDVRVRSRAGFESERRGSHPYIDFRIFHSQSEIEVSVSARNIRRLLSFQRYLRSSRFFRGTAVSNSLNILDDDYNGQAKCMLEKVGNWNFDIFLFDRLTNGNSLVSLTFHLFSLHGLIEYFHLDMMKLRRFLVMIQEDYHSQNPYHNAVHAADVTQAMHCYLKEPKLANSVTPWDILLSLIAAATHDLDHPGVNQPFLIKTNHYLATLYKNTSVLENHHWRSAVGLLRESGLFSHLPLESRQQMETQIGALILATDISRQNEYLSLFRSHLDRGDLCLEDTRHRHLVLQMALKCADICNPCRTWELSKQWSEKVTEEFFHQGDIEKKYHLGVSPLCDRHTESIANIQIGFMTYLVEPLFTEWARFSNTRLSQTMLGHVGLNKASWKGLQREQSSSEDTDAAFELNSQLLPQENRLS
Excerpt: (§1) Method for Measuring Inhibition of PDE4 and PDE7 Activities
(§2) The cDNA for PDE7A1 (Genebank Acc. No. L12052) was isolated, using RT-PCR, from total cellular RNA derived from the T cell line CCRF-CEM and cloned into the cloning vector pCR2.1 (invitrogen, Groningen, NL) under standard conditions (the manufacturer's instructions). For expression in insect cells, the cDNA was subcloned into the baculo expression vector pCRBac (invitrogen, Groningen, NL). The cDNA for PDE4D3 was a gift of Marco Conti (Stanford University, USA). The ORF (Genebank Acc. No. U50159) was cut from the original pCMV5 vector with the restriction enzymes EcoRI and XbaI and subcloned in the expression vector pBacPak9 (Clontech, Palo Alto).
(§3) The recombinant baculoylrus was prepared by means of homologous recombination in SF9 insect cells. The expression plasmids were cotransfected with Bac-N-Blue (invitrogen, Groningen, NL) or Baculo-Gold DNA (Pharmingen, Hamburg) using a standard protocol (Pharmingen, Hamburg). Wt virus-free recombinant virus supernatants were selected using plaque assay methods. After that, high-titre virus supernatants were prepared by amplifying 3 times. PDEs were expressed in SF21 cells by infecting 2×10^6 cells/ml with an MOI (multiplicity of infection) between 2 and 5 in serum-free SF900 medium (Life Technologies, Paisley, UK). The cells were cultured at 28° C. for 48 hours, after which they were pelleted for 5–10 min at 1000 g and 4° C. In the case of PDE7A1 cells were cultured in spinner flasks at a rotational speed of 75 rpm.
(§4) The SF21 insect cells were resuspended, at a concentration of approx. 10^7 cells/ml, in ice-cold (4° C.) homogenization buffer (20 mM Tris, pH 8.2, containing the following additions: 140 mM NaCl, 3.8 mM KCl, 1 mM EGTA, 1 mM MgCl2, 1 mM β-mercaptoethanol, 2 mM benzamidine, 0.4 mM Pefablock, 10 μM leupeptin, 10 μM pepstatin A, 5 μM trypsin inhibitor) and disrupted by ultrasonication. The homogenate was then centrifuged for 10 min at 1000×g and the supernatant was stored at −80° C. until subsequent use (see below). The protein content was determined by the Bradford method (BioRad, Munich) using BSA as the standard.
(§5) PDE7A1 and PDE4D3 activities were inhibited by the said compounds in a modified SPA (scintillation proximity assay) test, supplied by Amersham Pharmacia Biotech (see procedural instructions “phosphodiesterase [3H]cAMP SPA enzyme assay, code TRKQ 7090”), carried out in 96-well microtitre plates (MTP's). The test volume is 100 μl and contains 20 mM Tris buffer (pH 7.4), 0.1 mg of BSA (bovine serum albumin)/ml, 5 mM Mg^2+, 0.5 μM cAMP (including about 50,000 cpm of [3H]cAMP), 2 μl of the respective substance dilution in DMSO and sufficient recombinant PDE (1000×g supernatant, see above) to ensure that 15–20% of the cAMP is converted under the said experimental conditions. After a preincubation of 5 min at 37° C., the reaction is started by adding the substrate (cAMP) and the assays are incubated for a further 15 min; after that, they are stopped by adding SPA beads (50 μl). In accordance with the manufacturer's instructions, the SPA beads had preylously been resuspended in water and then diluted 1:3 (v/v); the diluted solution also contains 3 mM IBMX. After the beads have been sedimented (>30 min), the MTP's are analyzed in commercially available measuring appliances and the corresponding IC50 values of the compounds for the inhibition of PDE activities are determined from the concentration-effect curves by means of non-linear regression.

PDE4D3 = molecular target: T2, PDE4D3 (Homo sapiens, UniProt Q08499); assay: Inhibition of PDE4 activity, [3H]cAMP SPA enzyme assay with recombinant PDE4D3; format: biochemical; conditions: recombinant PDE4D3 from SF21 insect cells, 0.5 μM cAMP; for IC50: read-out: PDE4 −logIC50 (converted)
T2 construct: made in house; host or cells: SF21 insect cells (baculovirus, pBacPak9)
T2 sequence (Q08499 1-673 isoform Q08499-2): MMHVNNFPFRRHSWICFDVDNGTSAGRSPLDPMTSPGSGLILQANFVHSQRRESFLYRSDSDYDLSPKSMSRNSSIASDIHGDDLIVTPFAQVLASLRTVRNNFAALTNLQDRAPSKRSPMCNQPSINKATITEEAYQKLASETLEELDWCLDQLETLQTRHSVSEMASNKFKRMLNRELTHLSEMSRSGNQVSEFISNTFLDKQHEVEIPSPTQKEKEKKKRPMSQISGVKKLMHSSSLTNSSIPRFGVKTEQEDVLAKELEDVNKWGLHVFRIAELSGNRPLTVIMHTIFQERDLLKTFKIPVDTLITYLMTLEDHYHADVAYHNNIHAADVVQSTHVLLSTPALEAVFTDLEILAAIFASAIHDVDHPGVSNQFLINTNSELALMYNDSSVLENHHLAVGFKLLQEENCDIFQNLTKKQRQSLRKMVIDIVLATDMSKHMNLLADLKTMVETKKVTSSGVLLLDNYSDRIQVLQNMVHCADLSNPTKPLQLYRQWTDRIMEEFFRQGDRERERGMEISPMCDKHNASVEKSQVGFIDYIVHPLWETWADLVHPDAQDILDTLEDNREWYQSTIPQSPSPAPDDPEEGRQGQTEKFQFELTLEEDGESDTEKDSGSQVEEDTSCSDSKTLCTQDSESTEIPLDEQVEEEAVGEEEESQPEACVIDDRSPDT
Excerpt: as §1, §2, §3, §4, §5

Row | Structure (SMILES) | IC50 (PDE7A1) [µM] | IC50 (PDE4D3) [µM] | melting point | PDE7 −logIC50 (mol/l) (PDE7A1) | PDE4 −logIC50 (mol/l) (PDE4D3)
1 | COc1ccc(C2=NN(CCCCn3ccnc3)C(=O)[C@H]3CC=CC[C@@H]23)cc1Cl.Cl (relative stereo) [Compound 11, (cis)-4-(3-Chloro-4-methoxy-phenyl)-2-(4-imidazol-1-yl-butyl)-4a,5,8,8a-tetrahydro-2H-phthalazin-1-one hydrochloride] | 0.269 | 0.000891 | 217 to 219 °C |  | 
2 | COc1ccc(C2=NN(c3ccc4[nH]ncc4c3)C(=O)[C@H]3CC=CC[C@@H]23)cc1Cl.Cl (relative stereo) [Compound 9, (cis)-4-(3-Chloro-4-methoxy-phenyl)-2-(1H-indazol-5-yl)-4a,5,8,8a-tetrahydro-2H-phthalazin-1-one hydrochloride] | 0.0288 | 0.00257 | 196 to 197 °C |  | 
3 | COc1ccc(C2=NN(c3cc(C)c4c(C)nn(C)c4n3)C(=O)[C@H]3CC=CC[C@@H]23)cc1Cl (relative stereo) [Compound 17, (cis)-4-(3-Chloro-4-methoxy-phenyl)-2-(1,3,4-trimethyl-1H-pyrazolo[3,4-b]pyridin-6-yl)-4a,5,8,8a-tetrahydro-2H-phthalazin-1-one] | 0.0417 | 0.0219 |  |  | 
4 | COc1ccc(C2=NN(c3nc(-c4cccs4)ns3)C(=O)[C@H]3CC=CC[C@@H]23)cc1Cl (relative stereo) [Compound 18, (cis)-4-(3-Chloro-4-methoxy-phenyl)-2-(3-thiophen-2-yl-[1,2,4]thiadiazol-5-yl)-4a,5,8,8a-tetrahydro-2H-phthalazin-1-one] | 0.0776 | 0.0234 |  |  | 
5 | COc1ccc(C2=NN(C3CCCC3)C(=O)[C@H]3CC=CC[C@@H]23)cc1Cl (relative stereo) [Compound 10, (cis)-4-(3Chloro-4-methoxy-phenyl)-2-cyclopentyl-4a,5,8,8a-tetrahydro-2H-phthalazin-1-one] | 0.0186 | 0.000776 |  |  | 
6 | COc1ccc(C2=NN(C3CCN(Cc4ccncc4)CC3)C(=O)[C@H]3CC=CC[C@@H]23)cc1Cl.Cl (relative stereo) [Compound 4, (cis)-4-(3-Chloro-4-methoxy-phenyl)-2-(1-pyridin-4-ylmethyl-piperidin-4-yl)-4a,5,8,8a-tetrahydro-2H-phthalazin-1-one hydrochloride] | 0.0417 | 0.00245 | 244 °C (dec.) |  | 
7 | COc1ccc(C2=NN(C3CCN(C(=O)N4CCOCC4)CC3)C(=O)[C@H]3CC=CC[C@@H]23)cc1Cl (relative stereo) [Compound 1, (cis)-4-(3-Chloro-4-methoxy-phenyl)-2-[1-(1-morpholin-4-yl-methanoyl)-piperidin-4-yl]-4a,5,8,8a-tetrahydro-2H-phthalazin-1-one] | 0.0229 | 0.00229 |  |  | 
8 | COc1ccc(C2=NN(CCCCOc3ccc(C(=O)O)cc3)C(=O)[C@H]3CC=CC[C@@H]23)cc1Cl (relative stereo) [Compound 12, (cis)-4-{4-[4-(3-Chloro-4-methoxy-phenyl)-1-oxo-4a,5,8,8a-tetrahydro-1H-phthalazin-2-yl]-butoxy}benzoic acid] | 0.0977 | 0.00646 | 169 to 171 °C |  | 
9 | COc1ccc(C2=NN(c3ccc4ncsc4c3)C(=O)[C@@H]3CC=CC[C@H]23)cc1Cl (relative stereo) [Compound 7, (cis)-2-Benzothiazol-6-yl-4-(3-chloro-4-methoxy-phenyl)-4a,8,8a-tetrahydro-2H-phthalazin-1-one] | 0.105 | 0.00813 | 156 to 157 °C |  | 
10 | COc1ccc(C2=NN(C3CCN(C(C)=O)CC3)C(=O)[C@@H]3CC=CC[C@H]23)cc1Cl (relative stereo) [Compound 3, (cis)-2-(1-Acetyl-piperidin-4-yl)-4-(3-chloro-4-methoxy-phenyl)-4a,5.8,8a-tetrahydro-2H-phthalazin-1-one] | 0.182 | 0.00562 | 206 to 208 °C |  | 
11 | COc1ccc(C2=NN(c3ccc(C(=O)O)cc3)C(=O)[C@H]3CC=CC[C@@H]23)cc1Cl (relative stereo) [Compound 14, (cis)-4-{4-(3-chloro-4-methoxyphenyl)-1-oxo-4a,5,8,8a-tetrahydro-1H-phthalazin-2-yl}-benzoic acid] |  |  | 222 to 224 °C |  | 
12 | COc1ccc(C2=NN(c3ccc(C(=O)O)cc3)C(=O)[C@H]3CC=CC[C@@H]23)cc1F (relative stereo) [Compound 13, (cis)-4-[4-(3-Fluoro-4-methoxy-phenyl)-1-oxo-4a,5,8,8a-tetrahydro-1H-phthalazin-2-yl]-benzoic acid] | 0.38 | 0.0457 | 201 to 203 °C |  | 
13 | COc1ccc(C2=NN(C3CCN(S(=O)(=O)c4ccc(C)cc4)CC3)C(=O)[C@H]3CC=CC[C@@H]23)cc1Cl (relative stereo) [Compound 2, (cis)-4-(3-Chloro-4-methoxy-phenyl)-2-[1-(toluene-4-sulfonyl)-piperidin-4-yl]-4a,5,8,8a-tetrahydro-2H-phthalazin-1-one] | 0.107 | 0.00398 | 198 to 199 °C |  | 
14 | COc1ccc(C2=NN(c3ccc(C(=O)N4CCN(CCN(C)C)CC4)cc3)C(=O)[C@H]3CC=CC[C@@H]23)cc1Cl.Cl.Cl (relative stereo) [Compound 5, (cis)-4-(3-Chloro-4-methoxy-phenyl)-2-(4-{1-[4-(2-dimethylamino-ethyl)-piperazin-1-yl]-methanoyl}-phenyl)-4a,5,8,8a-tetrahydro-2H-phthalazin-1-one dihydrochloride] | 0.0661 | 0.0138 | 198 to 201 °C |  | 
15 | COc1ccc(C2=NN(C3CCN(C(=O)N4CCNC4=O)CC3)C(=O)[C@H]3CC=CC[C@@H]23)cc1Cl (relative stereo) [Compound 22, cis-4-(3-Chloro-4-methoxy-phenyl)-2-{1-[1-(2-oxo-imidazolidin-1-yl)-methanoyl]-piperidin-4-yl}-4a,5,8,8a-tetrahydro-2H-phthalazin-1-one] |  |  | 216 to 218 °C |  | 
16 | COc1ccc(C2=NN(c3ccc4c(c3)COC4=O)C(=O)[C@H]3CC=CC[C@@H]23)cc1Cl (relative stereo) [Compound 8, (cis)-4-(3-Chloro-4-methoxy-phenyl)-2-(1-oxo-1,3-dihydro-isobenzofuran-5-yl)-4a,5,8,8a-tetrahydro-2H-phthalazin-1-one] | 0.0891 | 0.00891 | 212 to 213 °C |  | 
17 | COc1ccc(C2=NN(c3nc(C)ccc3C(F)(F)F)C(=O)[C@H]3CC=CC[C@@H]23)cc1Cl (relative stereo) [Compound 6] |  |  |  | 7.08 | 7.64
